Measurements from a melting point compilation (Tetko et al.; mined from patent text by program, amines drawn as free bases though some values may be those of a salt).

CN(C)c1ccccc1CNC(=O)C1Cc2ccccc2N1S(=O)(=O)c1ccc(-c2cccc(C(F)(F)F)c2)cc1 (stereo not given) and O=C(NCc1ccccc1)c1ccnc(NC(=O)c2cccc3ccccc23)c1 cannot be ordered by melting point: 66 °C for the first, 65 to 67 °C for the second.

Compared with CCCn1c(=O)c2[nH]c(/C=C/c3ccc(Cl)c(Cl)c3)nc2n(CCC)c1=O, CCCn1c(=O)c2c(nc(C=Cc3cc(OC)c(OC)cc3S(N)(=O)=O)n2C)n(CCC)c1=O is higher in melting point: 195 to 202 °C for the first, 266 to 268 °C for the second.

First: Cc1ccc(CC2CCN(C(=O)C(=O)Nc3ccc4[nH]c(=O)sc4c3)CC2)cc1
Second: Cc1ccc(S(=O)(=O)N2CCC[C@H]2C(=O)N[C@@H](Cc2ccc(OCCN3CCOCC3)cc2)C(=O)O)cc1
The melting point of the first is higher: 221 to 222 °C for the first, 99 to 101 °C for the second.

First: O=C(CCSc1ccc2ccccc2c1)c1ccccc1
Second: O=C(O)c1ccccc1Oc1ccc2ccccc2c1
The melting point of the first is lower: 90 to 91 °C for the first, 139 to 142 °C for the second.

Compared with COc1cc(-c2ccccc2F)c(Cl)cc1C(=O)N1Cc2cccn2Cc2ccccc21, NCCCc1ccc(OCCC2Oc3ccccc3N(Cc3cccc(Cl)c3)C2=O)cc1 (stereo not given) is lower in melting point: 192 to 194 °C for the first, 109 to 111 °C for the second.

First: CC(=O)Cc1ccc(OCc2ccccc2)cc1
Second: Cc1oc(-c2ccccc2)nc1CCOc1ccc(CCc2nnn[nH]2)cc1
The melting point of the first is lower: 50 to 54 °C for the first, 143 to 144 °C for the second.

First: O=C(OCCCI)C(=C1NCCCS1)[N+](=O)[O-]
Second: COC(=O)/C(=N\OC1(C(=O)O)CCC1)c1ccco1
The melting point of the first is lower: 58 to 60 °C for the first, 133 to 134 °C for the second.

First: COc1cc2c(c(OC)c1)OC(C(F)(F)F)C(C(=O)O)=C2 (stereo not given)
Second: CCCCCc1c(/C=C/C(=O)OC)sc2cc(OC)ccc12
The melting point of the first is higher: 215 to 217 °C for the first, 49 to 50 °C for the second.

First: CCN(CC)c1ccc(N=Nc2ccc(OCCOC)c(S(=O)(=O)Cl)c2)cc1
Second: CCCc1c(OCCCS(=O)(=O)c2ccc(C(=O)CCC(=O)O)c(F)c2)ccc(C(C)=O)c1O
The melting point of the first is lower: 103 to 104 °C for the first, 116 to 118 °C for the second.

Compared with CN1CCN(c2ccc(/C=C/c3cc(/C=C/c4ccc5cc[nH]c5c4)[nH]n3)cc2)CC1, O=C(O)[C@@H]1C[C@H]1/C=C\c1ccc(-c2nc3ccccc3o2)cc1 (relative stereo) is lower in melting point: 192 to 198 °C for the first, 171 to 172 °C for the second.

Compared with CCOC(=O)c1cn(C2CC2)c2nc(N3C[C@@H](CN)[C@@H](Cl)C3)c(F)cc2c1=O (relative stereo), CCOC(=O)c1cn(C)c2cnc3cc(F)c(F)cc3c2c1=O is higher in melting point: 163 to 167 °C for the first, 272 °C for the second.

Compared with O=C(N[C@H](Cc1ccccc1C(F)(F)F)[C@@H](O)c1ccc(F)cc1)C1CCCCC1 (racemic), CC(=O)N1CCC(NC(=O)Nc2ccc(C(F)(F)F)cc2)CC1 is higher in melting point: 216 to 217 °C for the first, 240 to 248 °C for the second.

Compared with COc1ncccc1-c1nc(C(N)=O)c2[nH]c(=O)n(-c3ccccc3)c2n1, O=C(NN=Cc1ccnc2ccccc12)c1cccnc1 is lower in melting point: 279 to 281 °C for the first, 99.6 °C for the second.

Compared with Cc1c(F)c(=O)n(-c2cc(C(=O)OC(C)C)c(Cl)cc2F)c(=O)n1C, CCS(=O)(=O)Nc1cc(-c2ncnc(C(C)C)c2Cl)c(F)cc1C#N is higher in melting point: 112 to 115 °C for the first, 160 to 162 °C for the second.

Compared with ON=C(CCC(CN1CCN(c2ncccn2)CC1)C(=NO)c1ccccc1)c1ccccc1 (stereo not given), C1=C(c2ccccc2)CCN(Cc2nc3ccccc3[nH]2)C1 is higher in melting point: 75 to 78 °C for the first, 253 to 255 °C for the second.

First: CC(=O)SCC(C(=O)O)C(F)(F)F (stereo not given)
Second: CCOC(=O)Cn1c(C(=O)O)cc2cc(Cl)ccc21
The melting point of the first is lower: 28 to 30 °C for the first, 198 to 200 °C for the second.

Compared with CC(C)n1nc(-c2c(-c3ccccc3)nc(N)nc2N2CCCCC2)ccc1=O, CCc1[nH]n(C2CCCC2)c2nc(-c3cccc(-n4ccnc4)c3)nc(=O)c1-2 is higher in melting point: 221 to 223 °C for the first, 264 to 265 °C for the second.

First: CCn1c2s[nH]c(=O)c2c(=O)c2cc(F)c(N3CCN(c4ncccn4)CC3)c(OC(F)F)c21
Second: CN1Cc2c(Cc3ccc4c(c3)C(=O)NC4=O)ncn2-c2ccsc2C1=O
The melting point of the first is higher: 259 to 262 °C for the first, 245 to 246 °C for the second.

First: C=CC(=O)N1CCSc2ccccc2C1
Second: Cc1cc(C)c(N2CCCc3c2nn(C)c3C(=O)N2CCc3ccccc3C2)c(C)c1
The melting point of the first is higher: 108 to 110 °C for the first, 80.3 to 87.7 °C for the second.

First: CCCCCC(C)(C)NC(=O)CCl
Second: CCCCCCCCCCCCCCCCNC(=O)CC#N
The melting point of the first is lower: 36 to 37 °C for the first, 95.5 to 96.5 °C for the second.

First: CN(C(=O)OC(C)(C)C)c1cc(Oc2ccc(C34CC5CC(CC(C5)C3)C4)cc2)ccc1N
Second: CN(C)C(=O)CCC12CC(c3ccccc31)c1ccccc12
The melting point of the first is lower: 85 to 90 °C for the first, 186 to 187 °C for the second.

First: N#CCOc1coc2ccccc2c1=O
Second: N#CCOC(=O)CCCCc1c[nH]c2ccccc12
The melting point of the first is higher: 145 to 146 °C for the first, 76 °C for the second.

First: CC1(NC(=O)C(Br)CBr)COCOC1 (stereo not given)
Second: C=CCC(=O)NCCN1CCOc2ccc(OC)cc21
The melting point of the first is higher: 115 to 119 °C for the first, 80 to 81 °C for the second.

Compared with Cc1cc(CCCCCOc2ccc(C3NCCS3)cc2)on1 (stereo not given), O[C@H]1c2cc(OCc3cccnc3)ccc2OC[C@H]1Cc1cccnc1 (relative stereo) is higher in melting point: 82 to 84 °C for the first, 145 to 147 °C for the second.

First: CCC(CC)Oc1cc(C)nc(Nc2c(C)cc(C)cc2C)c1
Second: Cc1c(C)c2c(c(C)c1NC(=O)OCC(Cl)(Cl)Cl)C(c1ccc(C(C)C)cc1)CO2 (stereo not given)
The melting point of the first is lower: 98 to 100 °C for the first, 137 to 140 °C for the second.

First: CCCCCCCNC(=O)Nc1ccccc1CNCc1cc(C(C)(C)C)c(O)c(C(C)(C)C)c1
Second: COc1c(NC(=O)c2cc3cccc(NC(=O)c4ccc(N)nc4)c3s2)cc(C(C)(C)C)cc1NS(C)(=O)=O
The melting point of the first is lower: 135 to 138 °C for the first, 234 to 235 °C for the second.

First: CCN(CC)C(=S)Oc1cc(Br)cc(Br)c1
Second: CCn1nc(C)c2c1C(=O)NCC(c1cccc(O)c1)=N2
The melting point of the first is lower: 72 to 74 °C for the first, 204 °C for the second.

Compared with CCCCCCCCCCCCCCCCCCN(CCCCCCCCCCCCCCCCCC)C(=O)N1CCN(C)CC1, CCOC(=O)CCN(CCCCCCN(CCC(=O)OCC)C1CC(C)(C)NC(C)(C)C1)C1CC(C)(C)NC(C)(C)C1 is higher in melting point: 46 to 47 °C for the first, 58 to 60 °C for the second.

First: COC(=O)CCCc1cc2nc(Cl)ccc2n1S(=O)(=O)c1ccc(-n2cccn2)cc1
Second: CC(C)(S)CNC(=O)/C(CCO)=C(\c1ccc(Cl)cc1)c1ccc(S(C)(=O)=O)cc1
The melting point of the first is higher: 122 to 124 °C for the first, 62 to 64 °C for the second.

First: O=C(O)CCC(=O)NCc1ccc2c(c1)-c1[nH]nc(-c3ccsc3)c1C2
Second: COC(=O)c1ccc(Cn2c(=O)c3cc(C(=O)NCc4ccc(OC)cc4)ccc3n(C)c2=O)cc1
The melting point of the first is higher: 235 to 236 °C for the first, 189 °C for the second.

Compared with Brc1ccc(-c2cccs2)s1, c1csc(-c2cnc(-c3cccs3)s2)c1 is higher in melting point: 55 to 56 °C for the first, 93 to 93.8 °C for the second.

First: CSC1NC(=O)N(c2ccccc2)C(=O)N1N=C(C)C (stereo not given)
Second: Cc1cccc(NC(=O)OCCS(C)(=O)=O)c1CNc1cccn2c(C)c(C)nc12
The melting point of the first is higher: 206 to 207 °C for the first, 161 to 162 °C for the second.

First: O=C(C=Cc1ccccc1)Nc1ccc2ccc(Cl)nc2n1
Second: O=[N+]([O-])c1ccc(CN2CCCC(O)c3ncccc32)cc1 (stereo not given)
The melting point of the first is higher: 263 °C for the first, 182 to 185 °C for the second.

First: CC(C)N1CNS(=O)(=O)c2sc(Cl)cc21
Second: O=c1cc(N2CCOCC2)oc2ccccc12
The melting point of the first is lower: 100 to 102 °C for the first, 143 °C for the second.

First: Cc1nn(-c2ccc(C(F)(F)F)cn2)cc1COc1cc(CO)n(C)n1
Second: COc1ccc(N2CCOCC2)c2sc(-c3nc(-c4ccc5c(c4)OCCO5)c[nH]3)nc12
The melting point of the first is lower: 128 to 129 °C for the first, 235 to 237 °C for the second.
